Source: patent publication US5185366A, “Method for treatment and prevention of diseases caused by enveloped viruses, including herpes simplex virus types 1 and 2 diseases, using 3,4-dihydroxy-2H-benzopyran-2H-one” (Ohio State University Research Foundation, priority 1990, dated 1993)
Like-named read-outs stand apart in the source and are kept apart here.

How the values were obtained:
[1] = system: HSV-2; experiment: Intracellular activity, inhibition of plaque forming units, HSV-2; format: cell-based, Herpes simplex virus type 2; conditions: for inhibition at 10 µM: Human alphaherpesvirus 2, intracellular, read-out: % Inhibition; for inhibition at 10 µM / Plaque Forming Units Mean ± SD: HSV-2: 1 × Cmpd (10 μM); for Plaque Forming Units Mean ± SD: intracellular
[2] = system: HSV-2; experiment: Extracellular activity, inhibition of plaque forming units, HSV-2; conditions: for extracellular antiviral activity: HSV-2, 10 μM; for Plaque Forming Units Mean ± SD: extracellular
[3] = Inhibition of cell growth (microscopic cell count); format: cell-based, Buffalo green monkey; conditions: monkey, bgm-70 cells, read-out: % Reduction of cell growth
Protocol: a MASHII cell harvester and placed in a scintillation counter to determin
incorporation of labelled compound and level of toxicity. BGM 70 cells ar
seeded at a concentration of […] per well in a 24well tissue cultur
plate. Cells are planted in 2 mL of growth medium with or without the tes
compound and are incubated at 37° C. for 38 hours. At 24 hours
medium is removed from onehalf of the plates and the cells are fixed and
stained with crystal violet. The remaining cultures are fixed and stained
^b BGM 70 cells are counted microscopically and comparisons are made.
Experiments are performed blindly by assigning each compound concentratio
a letter code. The code is broken after the cells are counted.
The effect of the compounds on the inhibition of cell growth is determined using BGM-70 cells grown in vitro. For this assay, BGM 70 cells are seeded at a concentration of approximately 70 cells per well in 24-well tissue culture plates. Cells are planted in 2 ml of growth medium with or without the test compound and are incubated at 37° C. for 48 hours. At 24 hours, cells from one half of the plates are fixed and stained with crystal violet. The remaining cultures are fixed and stained at 48 hours. Cells are counted microscopically and comparisons are made between non-treated (control) and treated cells.

[4] = system: VSV; experiment: microbe, parasite or virus in culture; format: cell-based, Vesicular stomatitis virus
[5] = system: HSV-1; experiment: Intracellular activity, inhibition of plaque forming units, HSV-1; format: cell-based, Herpes simplex virus type 1; conditions: for intracellular antiviral activity: HSV-1, 10 μM; for Plaque Forming Units Mean ± SD: intracellular
[6] = system: HSV; experiment: Selectivity among the viruses tested; format: cell-based, Herpes simplex virus
[7] = system: Poliovirus-2; experiment: organism not typed; format: cell-based
[8] = system: HSV-2; experiment: HSV-2 plaque size, intracellular treatment; format: cell-based, Herpes simplex virus type 2
Protocol: For antiviral studies the diameter of plaques is determined with the aid of a calibrated micrometer slide and a microscope eye piece having scaled markings. A simple random sample is taken and all plaque diameters are measured for both experimental and control groups. Plaque diameter also serves as an indication of inhibition of viral replication. […] Monolayers are then infected, washed with EBSS and | maintenance medium with or without compound added. Cells are stained afte | 48 hours with crystal violet and the plaque diameters are determined with | the aid of a micrometer.

[9] = listed as 3,4-dihydroxy-2H-1-benzopyran-2-one

## O=c1oc2ccccc2c(O)c1O [Compound 5, 3,4-dihydroxy-2H-1-benzopyran-2-one]
[1]; relative viral conc 10
  inhibition at 10 µM: 33%
  Plaque Forming Units Mean ± SD: 14.3 ± 1.1
[1]; relative viral conc 100
  inhibition at 10 µM: 39%
  Plaque Forming Units Mean ± SD: 153.6 ± 7.4
[1]; at noncytotoxic concentrations
  anti-HSV-2 properties: exhibited anti-HSV-2 properties at noncytotoxic concentrations
[2]
  extracellular antiviral activity: shows both intra- and extra- cellular antiviral activity
[2]; [9]
  extracellular antiviral activity: exhibits both intracellular and extracellular activity
[2]; Human alphaherpesvirus 2, extracellular, HSV-2 + 1 × Cmpd (10 μM), relative viral conc 10
  inhibition at 10 µM: 64%
[2]; Human alphaherpesvirus 2, extracellular, HSV-2 + 1 × Cmpd (10 μM), relative viral conc 100
  inhibition at 10 µM: 77%
[2]; Human alphaherpesvirus 2, extracellular, HSV-2 + 2 × Cmpd (20 μM), relative viral conc 10
  inhibition at 20 µM: 96%
[2]; Human alphaherpesvirus 2, extracellular, HSV-2 + 2 × Cmpd (20 μM), relative viral conc 100
  inhibition at 20 µM: 95%
[2]; Human alphaherpesvirus 2, read-out: % Inhibition of PFU, EA (extracellular activity), HSV-2, 10.0 μmol/L
  inhibition at 10 µM: 81%
[2]; Human alphaherpesvirus 2, read-out: % Inhibition of Plaque Forming Units, Extracellularly, HSV-2, 10 μM (Table IV)
  inhibition at 10 µM: 81 ± 4%
[2]; Human alphaherpesvirus 2, read-out: reduction (PFU), extracellularly, HSV-2, 10 μM level, P<0.01
  inhibition at 10 µM: 76 to 98%
[2]; comparison with clofibric acid, P<0.01
  inhibition, extracellular treatment of HSV-2: 63+/-4%
[2]; HSV-2 + 1 × Cmpd (10 μM), relative viral conc 10
  Plaque Forming Units Mean ± SD: 5.3 ± 1.5
[2]; HSV-2 + 1 × Cmpd (10 μM), relative viral conc 100
  Plaque Forming Units Mean ± SD: 49.3 ± 4.5
[2]; HSV-2 + 2 × Cmpd (20 μM), relative viral conc 10
  Plaque Forming Units Mean ± SD: 0.6 ± 0.6
[2]; HSV-2 + 2 × Cmpd (20 μM), relative viral conc 100
  Plaque Forming Units Mean ± SD: 9.7 ± 1.5
[3]; 24 h, 10.0 μmol/L
  inhibition at 24 h, 10 µM: 0%
[3]; 24 h, 50.0 μmol/L
  inhibition at 24 h, 50 µM: 5.9 ± 0.5%
[3]; 24 h, 100.0 μmol/L
  inhibition at 24 h, 100 µM: 47.8 ± 9%
[3]; 48 h, 10.0 μmol/L
  inhibition at 48 h, 10 µM: 0.4%
[3]; 48 h, 50.0 μmol/L
  inhibition at 48 h, 50 µM: 8.7 ± 2.8%
[3]; 48 h, 100.0 μmol/L
  inhibition at 48 h, 100 µM: 54.1 ± 3.2%
[4]; VSV, n=2
  intracellular antiviral activity: no antiviral activity
[4]; Vesicular stomatitis virus, read-out: % Inhibition of Plaque Forming Units, Intracellularly
  inhibition at 10 µM: 0%
[5]
  intracellular antiviral activity: shows both intra- and extra- cellular antiviral activity
[5]; [9]
  intracellular antiviral activity: exhibits both intracellular and extracellular activity
[5]; Human alphaherpesvirus 1, HSV-1, 10 μM, P<0.01, read-out: inhibition (PFU), intracellularly
  inhibition at 10 µM: 25 to 39%
[5]; Human alphaherpesvirus 1, HSV-1, 10 μM, read-out: % Inhibition of Plaque Forming Units, Intracellularly
  inhibition at 10 µM: 38.4 ± 5.7%
[5]; Human alphaherpesvirus 1, intracellular, HSV-1: 1 × Cmpd (10 μM), relative viral conc 10, read-out: % Inhibition
  inhibition at 10 µM: 25%
[5]; Human alphaherpesvirus 1, intracellular, HSV-1: 1 × Cmpd (10 μM), relative viral conc 100, read-out: % Inhibition
  inhibition at 10 µM: 38%
[5]; HSV-1: 1 × Cmpd (10 μM), relative viral conc 10
  Plaque Forming Units Mean ± SD: 11.0 ± 1.0
[5]; HSV-1: 1 × Cmpd (10 μM), relative viral conc 100
  Plaque Forming Units Mean ± SD: 106.6 ± 9.3
[6]
  selectivity for HSV among the viruses tested: selective for HSV among the viruses tested
[7]; poliovirus-2, n=2
  extracellular antiviral activity: no antiviral activity
[7]; read-out: % Inhibition of Plaque Forming Units, Extracellularly
  inhibition at 10 µM: 2.7%
[8]; Human alphaherpesvirus 2, 48 h, viral-infected cells, 10 μM, read-out: reduction in plaque size
  inhibition at 10 µM: 56%
[8]; Human alphaherpesvirus 2, intracellularly, 10 μM, relative viral conc 10, read-out: % Inhib (mean plaque diameter)
  inhibition at 10 µM: 56%
[8]; Human alphaherpesvirus 2, intracellularly, 20 μM, relative viral conc 10, read-out: % Inhib (mean plaque diameter)
  inhibition at 20 µM: 60%
[8]; intracellularly, 10 μM, relative viral conc 1
  Mean plaque diameter (±SD), Treated: 213 ± 79 micrometers
[8]; intracellularly, 10 μM, relative viral conc 10
  Mean plaque diameter (±SD), Treated: 221 ± 89 micrometers
[8]; intracellularly, 20 μM, relative viral conc 1
  Mean plaque diameter (±SD), Treated: 205 ± 90 micrometers
[8]; intracellularly, 20 μM, relative viral conc 10
  Mean plaque diameter (±SD), Treated: 202 ± 88 micrometers
